Results on 7 compounds are retold here after patent US8580788B2, “Opioid antagonists” (Adolor Corporation, priority 2005, dated 2013).

As a reminder, the Ki is a measure of affinity in units of concentration, obtained from inhibition or displacement. Usually IC50 stands for the concentration needed to halve the response being measured.

Assay [1] deals with cloned human δ opioid receptor (Homo sapiens (Human), UniProt P41143). In words: [3H]diprenorphine receptor binding, δ opioid receptor. As to conditions: inhibition of [3H]diprenorphine binding; Cheng-Prusoff correction of IC50. How it is done: (§1) IC50 values were obtained by nonlinear analysis of the data using GraphPad Prism version 3.00 for Windows (GraphPad Software, San Diego). Ki values were obtained by Cheng-Prusoff corrections of IC50 values.
cloned human δ opioid receptor, sequence (P41143 whole entry): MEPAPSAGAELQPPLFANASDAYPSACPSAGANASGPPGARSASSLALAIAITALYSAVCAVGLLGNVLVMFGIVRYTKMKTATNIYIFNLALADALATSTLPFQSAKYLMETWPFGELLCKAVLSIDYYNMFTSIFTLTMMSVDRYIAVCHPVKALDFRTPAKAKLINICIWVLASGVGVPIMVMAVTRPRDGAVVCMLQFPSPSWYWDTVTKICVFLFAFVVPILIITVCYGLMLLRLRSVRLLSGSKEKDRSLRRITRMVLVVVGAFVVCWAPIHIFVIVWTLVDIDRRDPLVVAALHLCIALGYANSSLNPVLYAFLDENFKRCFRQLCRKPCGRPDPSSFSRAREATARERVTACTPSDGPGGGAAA
(§2) The receptor binding method (DeHaven and DeHaven-Hudkins, 1998) was a modification of the method of Raynor et al. (1994). After dilution in buffer A and homogenization as before, membrane proteins (10-80 μg) in 250 μL were added to mixtures containing test compound and [^3H]diprenorphine (0.5 to 1.0 nM, 40,000 to 50,000 dpm) in 250 μL of buffer A in 96-well deep-well polystyrene titer plates (Beckman). After incubation at room temperature for one hour, the samples were filtered through GF/B filters that had been presoaked in a solution of 0.5% (w/v) polyethylenimine and 0.1% (w/v) bovine serum albumin in water. The filters were rinsed 4 times with 1 mL of cold 50 mM Tris HCl, pH 7.8 and radioactivity remaining on the filters determined by scintillation spectroscopy. Nonspecific binding was determined by the minimum values of the titration curves and was confirmed by separate assay wells containing 10 μM naloxone.
(§3) To determine the equilibrium dissociation constant for the inhibitors (Ki), radioligand bound (cpm) in the presence of various concentrations of test compounds was measured. The concentration to give half-maximal inhibition (EC50) of radioligand binding was determined from a best nonlinear regression fit to the following equation,
(§4) [formula] where Y is the amount of radioligand bound at each concentration of test compound, Bottom is the calculated amount of radioligand bound in the presence of an infinite concentration of test compound, Top is the calculated amount of radioligand bound in the absence of test compound, X is the logarithm of the concentration of test compound, and LogEC50 is the log of the concentration of test compound where the amount of radioligand bound is half-way between Top and Bottom. The nonlinear regression fit was performed using the program Prism® (GraphPad Software, San Diego, Calif.). The Ki values were then determined from the EC50 values by the following equation,
(§5) [formula] where [ligand] is the concentration of radioligand and Kd is the equilibrium dissociation constant for the radioligand.

The target in assay [2] is cloned human κ opioid receptor (Homo sapiens (Human), UniProt P41145). In words: [3H]diprenorphine receptor binding, κ opioid receptor. Particulars: inhibition of [3H]diprenorphine binding; Cheng-Prusoff correction of IC50. How it is done: as §1, §2, §3, §4, §5
cloned human κ opioid receptor, sequence (P41145 whole entry): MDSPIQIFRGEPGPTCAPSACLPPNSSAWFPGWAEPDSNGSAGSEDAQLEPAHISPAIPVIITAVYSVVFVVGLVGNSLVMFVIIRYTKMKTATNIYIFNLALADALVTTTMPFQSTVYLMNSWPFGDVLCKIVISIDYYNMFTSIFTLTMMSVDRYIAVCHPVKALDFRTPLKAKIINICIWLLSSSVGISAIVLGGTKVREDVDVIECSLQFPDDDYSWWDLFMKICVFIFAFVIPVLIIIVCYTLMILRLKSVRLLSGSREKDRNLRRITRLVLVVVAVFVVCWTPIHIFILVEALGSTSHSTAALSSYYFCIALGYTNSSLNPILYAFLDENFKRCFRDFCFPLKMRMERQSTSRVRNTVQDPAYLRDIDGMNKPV
The target of assay [3] is T1, cloned human μ opioid receptor (Homo sapiens (Human), UniProt P35372). In words: inhibition of agonist-stimulated [35S]GTPγS binding (in vitro antagonist activity), μ opioid receptor. It counts as biochemical. Particulars: inhibition of loperamide (EC80)-stimulated [35S]GTPγS binding to membranes. How it is done: The potencies of the antagonists were assessed by their abilities to inhibit agonist-stimulated [^35S]GTPγS binding to membranes containing the cloned human μ, κ, or δ opioid receptors. The agonists used were loperamide for the μ opioid receptor.
T1 sequence (P35372 whole entry): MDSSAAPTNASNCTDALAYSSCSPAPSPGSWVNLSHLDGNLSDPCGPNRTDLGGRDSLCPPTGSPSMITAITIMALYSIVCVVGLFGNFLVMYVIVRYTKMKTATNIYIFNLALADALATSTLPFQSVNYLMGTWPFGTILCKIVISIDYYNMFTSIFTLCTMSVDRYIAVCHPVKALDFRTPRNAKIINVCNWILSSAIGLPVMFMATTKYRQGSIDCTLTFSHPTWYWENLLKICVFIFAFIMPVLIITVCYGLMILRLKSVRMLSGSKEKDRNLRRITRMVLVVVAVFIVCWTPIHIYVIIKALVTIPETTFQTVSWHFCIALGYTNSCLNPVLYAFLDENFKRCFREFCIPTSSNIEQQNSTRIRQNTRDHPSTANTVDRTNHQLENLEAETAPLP
To determine the IC50 value, which was the concentration to give half-maximal inhibition of agonist-stimulated [^35S]GTPγS binding, the amount of [^35S]GTPγS bound in the presence of a fixed concentration of agonist and various concentrations of antagonist was measured. The fixed concentration of agonist was the EC80 for the agonist, which was the concentration to give 80% of the relative maximum stimulation of [^35S]GTPγS binding. The IC50 value was determined from a best nonlinear regression fit of the data to the following equation,
[formula] where Y is the amount of [^35S]GTPγS bound at each concentration of antagonist, Bottom is the calculated amount of [^35S]GTPγS bound in the presence of an infinite concentration of antagonist, Top is the calculated amount of [^35S]GTPγS bound in the absence of added antagonist, X is the logarithm of the concentration of antagonist, and LogIC50 is the logarithm of the concentration of antagonist where the amount of [^35S]GTPγS bound is halfway between Bottom and Top. The nonlinear regression fit was performed using GraphPad Prism® version 3.00 for Windows (GraphPad Software, San Diego, Calif.).
A general note: GTPγS resists hydrolysis and so accumulates on activated G proteins.

In assay [4] the target is T1, cloned human μ opioid receptor. Description: [3H]diprenorphine receptor binding, μ opioid receptor. Particulars: inhibition of [3H]diprenorphine binding; Cheng-Prusoff correction of IC50. How it is done:
as §1, §2, §3, §4, §5

In the case of `C[C@H]1CN2CCN(CCc3ccccc3)C[C@H]2C[C@@]1(C)c1cccc(O)c1` [Example 2B, 3-((7R,8R,9αR)-7,8-dimethyl-2-phenethyl-octahydro-1H-pyrido[1,2-α]pyrazin-8-yl)phenol], the Ki in assay [1] was 242 nM; in assay [2], 112 nM. For the same compound, the IC50 in assay [3] is 21 nM.
Take `C[C@H]1CN2CCN(Cc3ccccc3)C[C@H]2C[C@@]1(C)c1cccc(O)c1` [Example 2D, 3-((7R,8R,9αR)-2-benzyl-7,8-dimethyl-octahydro-1H-pyrido[1,2-α]pyrazin-8-yl)phenol]: the values for the Ki in assay [4], in assay [1] and in assay [2] were 1.1 nM, 139 nM and 44 nM, respectively. For the same compound, the IC50 in assay [3] came to 11 nM.
For `C[C@H]1CN2C[C@H](c3ccccc3)CC[C@H]2C[C@@]1(C)c1cccc(O)c1` [Example 1, 3-((2R,3R,7S,9αS)-2,3-dimethyl-7-phenyl-octahydro-1H-quinolizin-2-yl)phenol], in that order: 0.57 nM, 30 nM, 8.9 nM and 0.53 nM.
For `C[C@H]1CN2C[C@H](Cc3ccccc3)NC[C@H]2C[C@@]1(C)c1cccc(O)c1` [Example 4, 3-((3S,7R,8R,9αR)-3-benzyl-7,8-dimethyl-octahydro-1H-pyrido[1,2-α]pyrazin-8-yl)phenol], in that order: 8.9 nM, 36 nM, 85 nM and 29 nM.
The matching figures for `C[C@H]1CN2CCN(C(=O)c3ccccc3)C[C@H]2C[C@@]1(C)c1cccc(O)c1` [Example 2C, ((7R,8R,9αR)-8-(3-hydroxyphenyl)-7,8-dimethyl-hexahydro-1H-pyrido[1,2-α]pyrazin-2(6H)-yl)(phenyl)methanone]: 2 nM, 25 nM, 190 nM and 21 nM.
For `C[C@H]1CN2C[C@H](c3ccccc3)N(C)C[C@H]2C[C@@]1(C)c1cccc(O)c1` [Example 3B, 3-((3S,7R,8R,9αR)-2,7,8-trimethyl-3-phenyl-octahydro-1H-pyrido[1,2-α]pyrazin-8-yl)phenol], the Ki in assay [4] came out at 3.3 nM; in assay [1], 716 nM; in assay [2], 12 nM. The IC50 in assay [3] came to 26 nM.
For `C[C@H]1CN2C[C@H](c3ccccc3)NC[C@H]2C[C@@]1(C)c1cccc(O)c1` [Example 3A, 3-((3S,7R,8R,9αR)-7,8-dimethyl-3-phenyl-octahydro-1H-pyrido[1,2-α]pyrazin-8-yl)phenol], in that order: 3.6 nM, 88 nM, 18 nM and 12 nM.
